Tests used:
[1] = target: T1, butyrylcholinesterase from equine serum (BuChE) (Equus caballus, UniProt P81908); assay: BuChE inhibition; format: biochemical
T1 construct: butyrylcholinesterase from equine serum (BuChE); from tissue; host or cells: equine serum
Text: (§1) The materials, equipment, AChE, BuChE, α-glucosidase inhibitory, and DNA hydrolytic cleavage actions are given as supplementary information.
(§2) The results were expressed as IC50 and selective index (SI=BuChE/AChE) values.

AChE [2] = target: T2, AChE (Electrophorus electricus, UniProt O42275); assay: AChE inhibition mechanism (Lineweaver–Burk and Dixon plots); format: biochemical; details: for Vmax: substrate acetylthiocholine iodide
Text: Acetylthiocholine iodide was used as a substrate for AChE inhibition.

[3] = target: α-glucosidase from Saccharomyces cerevisiae; assay: α-Glucosidase inhibition; format: biochemical
Text: as §1
The inhibitory properties of the compounds on α-glucosidase were investigated according to our previously reported methods. The results were expressed as IC50 values.

AChE [4] = target: T2, AChE; assay: Compound-protein binding by UV-Vis spectroscopy; details: AChE 10 µM; BDPY-4 5, 10, 15 and 20 µM
Description: To determine the structural change of AChE (10 µM) induced by BDPY-4, we measured the UV-Vis spectroscopy by adding the compound (5, 10, 15, and 20 µM) into AChE solution (10 µM). AChE has an absorption peak at 282 nm due to aromatic amino acids.

[5] = target: acetylcholinesterase from Electrophorus electricus (AChE) (Electrophorus electricus, UniProt O42275); assay: biochemical; details: for SI (BuChE/AChE): selective index = IC50 BuChE/AChE
Text: as §1, §2

T1 sequence (P81908 whole entry): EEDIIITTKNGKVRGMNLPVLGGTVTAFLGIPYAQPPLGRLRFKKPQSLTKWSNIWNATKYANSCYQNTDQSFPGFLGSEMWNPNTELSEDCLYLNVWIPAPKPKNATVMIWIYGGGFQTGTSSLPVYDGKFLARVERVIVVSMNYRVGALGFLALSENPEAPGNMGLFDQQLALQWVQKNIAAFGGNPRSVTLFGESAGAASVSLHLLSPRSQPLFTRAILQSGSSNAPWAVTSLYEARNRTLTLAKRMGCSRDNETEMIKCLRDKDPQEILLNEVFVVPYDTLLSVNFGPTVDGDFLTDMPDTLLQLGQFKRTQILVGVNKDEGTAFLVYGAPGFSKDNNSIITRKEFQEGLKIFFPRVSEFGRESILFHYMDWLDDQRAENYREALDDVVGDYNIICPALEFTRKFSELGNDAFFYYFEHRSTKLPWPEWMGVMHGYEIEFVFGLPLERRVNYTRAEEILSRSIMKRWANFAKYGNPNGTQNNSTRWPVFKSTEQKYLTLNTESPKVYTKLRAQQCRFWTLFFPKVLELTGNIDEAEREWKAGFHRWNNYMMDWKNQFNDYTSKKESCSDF
Chain of acetylcholinesterase from Electrophorus electricus (AChE) (O42275 24-633): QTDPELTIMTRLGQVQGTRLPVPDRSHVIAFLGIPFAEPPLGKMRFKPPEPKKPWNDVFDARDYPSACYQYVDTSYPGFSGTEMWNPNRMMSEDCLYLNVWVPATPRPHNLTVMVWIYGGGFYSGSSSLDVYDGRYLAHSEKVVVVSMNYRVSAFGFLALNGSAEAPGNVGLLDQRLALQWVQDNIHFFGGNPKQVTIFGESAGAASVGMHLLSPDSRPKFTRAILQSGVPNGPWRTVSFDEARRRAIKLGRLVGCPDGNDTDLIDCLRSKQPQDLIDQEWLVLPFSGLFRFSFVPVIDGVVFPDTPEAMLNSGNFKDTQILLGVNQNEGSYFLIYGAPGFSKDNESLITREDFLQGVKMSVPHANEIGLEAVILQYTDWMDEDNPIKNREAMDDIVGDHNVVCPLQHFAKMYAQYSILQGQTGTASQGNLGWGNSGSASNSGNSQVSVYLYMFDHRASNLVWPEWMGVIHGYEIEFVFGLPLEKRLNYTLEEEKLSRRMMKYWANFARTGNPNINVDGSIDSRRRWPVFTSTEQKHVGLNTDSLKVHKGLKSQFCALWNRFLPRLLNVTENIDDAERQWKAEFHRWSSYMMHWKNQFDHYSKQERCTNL
T2 sequence (O42275 24-633): as above

Question: How did the IC50 [1] turn out when `CC1=CC(/C=C/c2ccc(OCCCc3ccncc3)cc2)=[N+]2C1=C(c1ccc(OCCCc3ccncc3)cc1)c1c(C)cc(/C=C/c3ccc(OCCCc4ccncc4)cc3)n1[B-]2(F)F` [BDPY-4] was run?
Answer: 150 ± 6.09 µM

Question: What about the Vmax (AChE [2]; 50 µM BDPY-4) of the same molecule?
Answer: 196.08 µM/min

Question: And the Vmax (AChE [2]; 100 µM BDPY-4)?
Answer: 126.58 µM/min

Question: What about the Ki (AChE [2]; Dixon plot, read-out: Ki (inhibition constant)) of the same molecule?
Answer: 57.2 ± 0.2 µM

Question: And the Inhibitory type (AChE [2]; Lineweaver–Burk plot)?
Answer: noncompetitive inhibitor

Question: And the IC50 [3]?
Answer: 95 ± 4.77 µM

Question: What about the “Change of AChE absorbance” value (AChE [4]) of the same molecule?
Answer: hyperchromism

Question: And the “Shift of AChE absorption peak” value (AChE [4])?
Answer: shifted from 282 nm to 285 nm

Question: And the IC50 [5]?
Answer: 54.8 ± 4.51 µM

Question: And the “SI (BuChE/AChE)” value [5]?
Answer: 2.74

Question: `CC1=CC(/C=C/c2ccc(OCCCc3cccnc3)cc2)=[N+]2C1=C(c1ccc(OCCCc3ccncc3)cc1)c1c(C)cc(/C=C/c3ccc(OCCCc4cccnc4)cc3)n1[B-]2(F)F` [BDPY-5] was tested. Which IC50 [1] did it give?
Answer: 170 ± 4.33 µM

Question: And the IC50 [3]?
Answer: 106 ± 5.03 µM

Question: What about the IC50 [5] of the same molecule?
Answer: 64.9 ± 3.89 µM

Question: What about the “SI (BuChE/AChE)” value [5] of the same molecule?
Answer: 2.62

Question: For `CC1=CC(C)=[N+]2C1=C(c1ccc(OCCCc3ccncc3)cc1)c1c(C)cc(C)n1[B-]2(F)F` [BDPY-2], which IC50 [1] is on record?
Answer: 185 ± 5.49 µM

Question: What about the IC50 [3] of the same molecule?
Answer: 219 ± 8.71 µM

Question: What about the IC50 [5] of the same molecule?
Answer: 72.5 ± 2.95 µM

Question: What about the “SI (BuChE/AChE)” value [5] of the same molecule?
Answer: 2.55
